Common to all, as to type: in vivo
The subject of test [1] is ECHCG (Echinochloa crusgalli (L.) Beauv., barnyardgrass). The test can be described thus: In-water applied herbicidal mixtures, transplanted paddy rice, greenhouse (Example II).
Test [2] deals with FIMMI (Fimbristylis miliacea (L.) Vahl, globe fringerush). The description is as above. The following applies: Compound A Benzyl Ester 8 gae/ha.
In test [3] the test system is CYPES (Cyperus esculentus L., yellow nutsedge). Nature of the test: Postemergence field trials in direct-seeded rice, Greece and Italy (Example IV). The following applies: foliar. The method, then:
(§1) Multiple post-emergence field trials were conducted under field conditions in Tolima, Colombia; Thessaloniki, Greece; Ottobiano and Copiano, Italy; Greenville, Miss. and Eagle Lake, Tex., USA; and water-injected treatments were tested at Ryugasaki, Japan. Trial sites were located in commercially grown fields of direct-seeded rice (Oryza sativa) using standard herbicide small plot research methodology, except in Japan where transplanted rice was utilized for the field trial. Post-emergence trial plot size varied from 2 to 3 meter (m)×5 to 8 m (width×length) with 4 replicates per treatment. Water-injected trial plot size was 2×2 m with 3 replicates per treatment. The rice crop was grown using normal cultural practices for fertilization, seeding, watering, flooding and maintenance to ensure good growth of the crop and the weeds.
(§2) All treatments in the post-emergence field trials were applied using a backpack compressed air/gas sprayer with flat fan nozzles (80° or 110°) calibrated to apply 187 to 300 L/ha spray volume at approximately 200-400 kPa nozzle pressure. In Japan, treatments were water-injected applied where the specified amount of commercial product was mixed in 100 mls of water per replicate and applied directly into 3 cm deep water containing the crop and weeds. Treatments consisted of the benzyl ester of 4-amino-3-chloro-5-fluoro-6-(4-chloro-2-fluoro-3-methoxy-phenyl)pyridine-2-carboxylic acid (Compound A), formulated as an SC (suspension concentrate), and various herbicidal components alone and in combination.
Commercially available products of penoxsulam (Viper 20OD® (Europe), Grasp 240SC® (USA), and Wideattack 37.5SC® (Japan)) were mixed in water at appropriate formulated product rates to achieve the desired rates based on a unit area of application (hectare) to achieve the desired rates as shown. Treatments were rated at 15 to 56 days after application (DAA) as compared to the untreated control plants. Visual weed control was scored on a scale of 0 to 100 percent where 0 corresponds to no injury and 100 corresponds to complete kill.
All treatment results, both for the single product and mixtures, are an average of 3 to 4 replicates. The trial sites had naturally occurring populations of weeds. The weed spectrum included, but was not limited to, broadleaf signalgrass (Brachiaria platyphylla (Griseb.) Nash or Urochloa platyphylla (Nash) R.D. Webster, BRAPP), smallflower umbrellaplant (Cyperus difformis L., CYPDI), yellow nutsedge (Cyperus esculentus L., CYPES), multiple Echinochloa species in the same field (ECHSS) in Italy (mixed ECHSS biotypes), Amazon sprangletop (Leptochloa panicoides (J. Presl) A.S. Hitchc., LEFPA), and Japanese bulrush (Schoenoplectus juncoides (Roxb.) Palla, SCPJU).

Test [4] deals with SCPJU (Schoenoplectus juncoides Roxb., Japanese bulrush). The test can be described thus: Water-injected field trial in transplanted rice, Japan (Example IV). The method, then:
as §1, §2
Commercially available products of penoxsulam (Viper 20OD® (Europe), Grasp 240SC® (USA), and Wideattack 37.5SC® (Japan)) were mixed in water at appropriate formulated product rates to achieve the desired rates based on a unit area of application (hectare) to achieve the desired rates as shown. Treatments were rated at 15 to 56 days after application (DAA) as compared to the untreated control plants. Visual weed control was scored on a scale of 0 to 100 percent where 0 corresponds to no injury and 100 corresponds to complete kill. […]

As for `COc1c(Cl)ccc(-c2nc(C(=O)OCc3ccccc3)c(Cl)c(N)c2F)c1F` [Compound A Benzyl Ester, benzyl ester of 4-amino-3-chloro-5-fluoro-6-(4-chloro-2-fluoro-3-methoxy-phenyl)pyridine-2-carboxylic acid], the “Visual Weed Control (%) - 21 DAA ECHCG Obs” value stood at 20% in test [1] (Compound A Benzyl Ester 4.38 gae/ha) and 85% in test [1] (Compound A Benzyl Ester 8.75 gae/ha). For the same compound, the “Visual Weed Control (%) - 21 DAA FIMMI Obs” value in test [2] was determined as 30%. Besides, the “Visual Weed Control (%) - 54-56 DAA CYPES Obs” value in test [3] (Compound A Benzyl Ester 24 gae/ha) is 15%. The “Visual Weed Control (%) - 28 DAA SCPJU Obs” value in test [4] (Compound A Benzyl Ester 150 gae/ha) worked out at 22%; in test [4] (Compound A Benzyl Ester 200 gae/ha), 25%.

Turning to `COc1cnc(OC)n2nc(NS(=O)(=O)c3c(OCC(F)F)cccc3C(F)(F)F)nc12` [Penoxsulam, 2-(2,2-difluoroethoxy)-N-(5,8-dimethoxy[1,2,4]triazolo[1,5-c]pyrimidin-2-yl)-6-(trifluoromethyl)benzenesulfonamide, reference compound], the “Visual Weed Control (%) - 54-56 DAA CYPES Obs” value in test [3] (Penoxsulam 40 gai/ha) came out at 55%. Moreover, in test [4] (Penoxsulam 50 gai/ha), the “Visual Weed Control (%) - 28 DAA SCPJU Obs” value is 20%.

Source of the values: patent US8906825B2, “Herbicidal compositions comprising 4-amino-3-chloro-5-fluoro-6-(4-chloro-2-fluoro-3-methoxyphenyl) pyridine-2-carboxylic acid or a derivative thereof and triazolopyrimidine sulfonamides” (Dow AgroSciences LLC, priority 2012, dated 2014).
